Patent US11401516B2, “Channel modulators” (AUCKLAND UNISERVICES LIMITED, priority 2014, dated 2022)
Entries after “also recorded” stand apart in the source; their conditions may differ.

Columns and labels:
retinal ganglion cells = test: In vivo retinal ischaemia-reperfusion model, Tonabersat; design: species or system Wistar rats; conditions: 7 days; for Retinal ganglion cell density: ischaemic eyes, mean±standard error
Protocol: Animals were anesthetized with an intraperitoneal injection of ketamine (60 mg/kg) and medetomidine hydrochloride (0.4 mg/kg) and the cornea anaesthetized with oxybuprocaine hydrochloride (0.4%). The technique of retinal ischaemia-reperfusion has previously been described (D. Sun, et al., The Journal of comparative neurology 505, 114 (Nov. 1, 2007)). Briefly, the left anterior chamber was cannulated with a 30-gauge infusion needle connected by silicone tubing to a reservoir of sterile 0.9% saline. Cannulation was performed using a stereotaxic manipulator arm to avoid injury to the corneal endothelium, iris, or lens. The intraocular pressure of the cannulated eye was raised to 120 mmHg for 60 minutes by elevating the saline reservoir. Retinal ischaemia-reperfusion was confirmed by pallor of the posterior segment. After 60 minutes, the cannula was removed and reperfusion of the retinal vessels was confirmed by ophthalmoscopy. Three experimental arms were applied at the end of 60 minutes of ischaemia. These included: no treatment (n=6), 10 mg/kg Tonabersat (n=6), or 1 mg/kg Tonabersat (n=4). Systemic delivery of 0.25 mL of a 10 mg/ml or 1 mg/ml Tonabersat solution diluted in 40% PEG, 60% cyclodextrin solution was achieved through intraperitoneal delivery at the start of reperfusion. A final blood Tonabersat concentration of 0.319 mM or 0.0319 mM was intended, assuming a blood volume of 20 mL and total systemic uptake of peptide. Animals were euthanized with CO2 at 7 days after reperfusion. One uninjured animal was euthanized to obtain uninjured retinas as normal controls.
After euthanasia eyes were enucleated, and the cornea, lens, and vitreous humour removed. The dorsal aspect of the retina was notched to retain orientation. The retina and sclera were fixed in 4% PFA in PBS for 60 minutes at room temperature (RT). The retina was then carefully removed from the sclera and permeabilized via incubation in 0.5% Triton-X100 in PBS solution for 15 minutes at […] Retinas were mounted onto SuperFrost Plus slides using citifluor mounting medium, and imaged.
Two fields in each quadrant of each retina were imaged giving a total of eight images per retina. This method insured similar locations were assessed between different eyes and avoided any possible area bias present in the retina. Retinal ganglion cell (RGC) labelling was imaged at 10× magnification. […] Spots of one or two pixels that resulted from noise and artefacts that were clearly not RGC of origin were excluded during particle counts. RGC density was calculated as the number of RGCs per cm2.

[1] = target: T1, Cx43 GJ plaques in ARPE-19 cells (Homo sapiens, UniProt P17302); test: Immunocytochemistry and quantification of Cx43 plaques; type: cell-based
T1 construct: a native human cell line, retinal pigmented epithelial cells (ARPE-19), which reportedly has an abundant expression of Cx43; endogenous in cells; host or cells: ARPE-19
T1 sequence (P17302 2-382 limits assumed): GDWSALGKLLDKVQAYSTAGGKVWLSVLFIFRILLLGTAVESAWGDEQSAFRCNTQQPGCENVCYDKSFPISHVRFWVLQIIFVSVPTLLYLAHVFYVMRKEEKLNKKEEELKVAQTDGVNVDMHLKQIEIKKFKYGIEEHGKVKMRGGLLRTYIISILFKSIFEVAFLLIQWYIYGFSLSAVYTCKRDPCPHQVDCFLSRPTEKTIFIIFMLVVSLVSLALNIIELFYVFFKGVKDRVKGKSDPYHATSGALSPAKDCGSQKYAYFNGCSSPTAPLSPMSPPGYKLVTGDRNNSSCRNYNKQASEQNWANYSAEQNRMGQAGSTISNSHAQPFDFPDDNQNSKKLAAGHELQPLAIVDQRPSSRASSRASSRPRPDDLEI
Protocol: In the below Examples 3, 6 and 7 using human retinal epithelial (ARPE-19) cells, the cells were grown in DMEM/F: 12 (Invitrogen), supplemented with 10% fetal calf serum (FCS), 100 units/mL of penicillin, 100 μg/mL of streptomycin, and 0.25 μg/mL of Fungizone® Antimycotic (Invitrogen).
Cells were seeded at 0.05×10^6 per well in 8-well sterile glass microscope chamber slides (Falcon, Corning Life Sciences), and the monolayer was labeled for connexin expression at ˜90-100% confluency. The following steps were conducted at room temperature. Cells were fixed in 4% paraformaldehyde (P6148, Sigma-Aldrich) in PBS with 0.1 mM CaCl2 for 10 min, and washed three times in PBS with 0.1 mM CaCl2. After blocking in 10% normal goat serum in PBS with 0.1 mM CaCl2 for one hour, cells were incubated overnight in primary antibody solution (rabbit anti-Cx43, Sigma C6219) diluted in PBS with 0.1 mM CaCl2. The chamber slides were then washed three times with PBS containing 0.1 mM CaCl2 for 10 minutes, and incubated for a further 45 minutes in goat anti-rabbit Alexa 568 conjugated secondary antibody (Invitrogen #A11036). Cells were counter labeled with DAPI for 5 minutes and washed three times with PBS containing 0.1 mM CaCl2. Chamber wells were removed and cells were mounted anti-fade medium (Citiflour AF-1). Dilution ratios for specified primary and secondary antibodies were used according to manufacturer's recommendations.
ARPE-19 cells were grown until confluent in 8-well glass chamber-slides (BD Falcon). Confluent monolayers of ARPE-19 cells were incubated at a final concentration of 5 to 500 μM) Tonabersat, and/or 10 mM NH4Cl (H. Qin, et al., The Journal of biological chemistry 278, 30005 (Aug. 8, 2003)) in culture medium for 1 or 6 hours. Cells were fixed in 4% PFA (ProSciTech) at pH 7.4 for 10 min at room temperature, permeabilized with 0.05% Triton-X100 in PBS, and incubated in 10% normal goat serum to block non-specific labelling. Cells were rinsed three times with PBS containing 0.1 mM CaCl2 between each fixation, permeabilization, and blocking steps. Cx43 polyclonal rabbit antibody (C6219, Sigma, 1:2000) was applied for 24 hours, followed by a goat anti-rabbit Alexa Fluor® 568 secondary antibody (Invitrogen, 1:200) for 45 minutes. Nuclei were counterstained with DAPI (Invitrogen) at 10,000-fold dilution for 5 mins, and mounted with Citifluor™ mounting medium. Images were visualised and captured using a 63× oil immersion lens on an Olympus FV1000 upright confocal laser scanning microscope and software. The transfluor feature in MetaXpress® Image acquisition and analysis software (Version 5.3.0.1, Molecular Devices) was used to automate and quantify the total area of Cx43 plaques per image. Results represent mean±standard error and statistical tests were conducted using one-way ANOVA and Tukey's multiple comparisons test.

hCMVEC cells = test: MTT assay for cell viability; type: cell-based, human; conditions: 200 μM, 24-hour treatment
Protocol: Stock MTT was prepared by dissolving 5 mg in 1 mL PBS producing a concentration of 5 mg/mL. After the treatment incubation period of cells seeded in a 96 well-plate (at 1×10^4 cells/well) the media was removed and replaced with 100 μL of PBS. 10 μL of MTT stock solution was added to each well, except for those that were used as a blank, and left to incubate at 37° C. for 4 hours at which time the solutions was aspirated from each well. Then 50 μL DMSO (Sigma) was added to each well to dissolve the crystalline product. Viability was determined by measuring the absorbance of the purple crystal produced. This was measured by reading the absorbance at 595 nm in a plate reader; the data was standardized to each control as an internal standard. Statistically was investigated using One-way ANOVA and Tukey's post hoc test where *p<0.05.

CC(=O)c1ccc2c(c1)[C@H](NC(=O)c1ccc(F)c(Cl)c1)[C@H](O)C(C)(C)O2 [Tonabersat, N-[(3S,4S)-6-acetyl-3-hydroxy-2,2-dimethyl-3,4-dihydrochromen-4-yl]-3-chloro-4-fluorobenzamide]
RGC loss compared to normal controls (retinal ganglion cells; 1 mg/kg intraperitoneal at start of reperfusion): 18%
Retinal ganglion cell density (retinal ganglion cells; 1 mg/kg intraperitoneal): 199927±26058 cells/cm2
RGC loss compared to normal controls (retinal ganglion cells; 10 mg/kg intraperitoneal at start of reperfusion): 35%
Retinal ganglion cell density (retinal ganglion cells; 10 mg/kg intraperitoneal): 158739±26370 cells/cm2
total area of Cx43 plaques per cell, normalized to untreated control ([1]; 5 μM, 10 μM or 50 μM, 1 hour): no significant reduction in Cx43 plaques
Connexin43 gap junction labelling ([1]; 50 μM, 6 hours): most junctions have been internalised or lost; also recorded: total gap junction loss at cell-cell interfaces
increase in Cx43 labelling with 10 mM NH4Cl compared to Tonabersat alone ([1]; 100 μM, 1 hour): 104.8%
total area of Cx43 plaques per cell, normalized to untreated control ([1]; 100 μM, 1 hour): 52.8±5.6%
total area of Cx43 plaques per cell, normalized to untreated control ([1]; 100 μM, 6 hours): 66.5±5.4%
increase in Cx43 labelling with 10 mM NH4Cl compared to Tonabersat alone ([1]; 200 μM, 1 hour): 65.4%
total area of Cx43 plaques per cell, normalized to untreated control ([1]; 200 μM, 1 hour): 63.2±5.6%
total area of Cx43 plaques per cell, normalized to untreated control ([1]; 200 μM, 6 hours): 62.5±2.3%
total area of Cx43 plaques per cell, normalized to untreated control ([1]; 500 μM, 6 hours): 60.2±13.6%
Connexin43 gap junction labelling ([1]; 100 micromolar, 6 hours): very little Connexin43 labelling remains
cell viability (hCMVEC cells): did not significantly reduce cell viability
